The subject of series [1] is NCI-H460. Briefly: Antiproliferative activity against human H460 cells assessed as inhibition of cell viability at 40 uM incubated for 24 hrs by CCK-8 assay. It counts as functional, cell-based.
Series [2] has as its system NCI-H460. Briefly: Antiproliferative activity against human H460 cells assessed as inhibition of cell viability incubated for 24 hrs by CCK-8 assay. The following applies: for IC50: NCI-H460, 24 h. The series is classed as functional, cell-based.
For series [3], the system named is A549. Briefly: Inhibition of colony formation in human A549 cells at 20 uM incubated for 48 hrs and measured after 10 days culturing in normal media by Giemsa staining based inverted microscopy. The series is classed as functional, cell-based.
Series [4] concerns A549. Briefly: Antiproliferative activity against human A549 cells assessed as inhibition of cell viability incubated for 24 hrs by CCK-8 assay. The series is classed as functional, cell-based. The following applies: for IC50: A549, 24 h.
Series [5] relates to NCI-H460. Briefly: Inhibition of colony formation in human H460 cells at 20 uM incubated for 48 hrs and measured after 10 days culturing in normal media by Giemsa staining based inverted microscopy. The series is classed as functional, cell-based.
Series [6] concerns A549. Briefly: Antiproliferative activity against human A549 cells assessed as inhibition of cell viability at 40 uM incubated for 24 hrs by CCK-8 assay. The series is classed as functional, cell-based.
In series [7] the test system is NCI-H460. Briefly: Induction of apoptosis in human H460 cells assessed as early apoptotic cells at 20 uM incubated for 24 hrs by Annexin V-FITC/propidium iodide staining based flow cytometric method (reference value: 2.4%). The series is classed as functional.
The subject of series [8] is A549. Briefly: Induction of apoptosis in human A549 cells assessed as early apoptotic cells at 40 uM incubated for 24 hrs by Annexin V-FITC/propidium iodide staining based flow cytometric method (reference value: 0.3%). The series is classed as functional.
Series [9] deals with A549. Briefly: Antiproliferative activity against human A549 cells assessed as cell viability at 40 uM incubated for 24 hrs by CCK-8 assay. The series is classed as functional. The following applies: A549, 24 h, read-out: Activity.
In series [10] the test system is NCI-H460. Briefly: Downregulation of TOP3B protein expression in human H460 cells at 40 uM incubated for 24 hrs by western blot analysis. The series is classed as functional, cell-based.
For series [11], the system named is NCI-H460. Briefly: Induction of apoptosis in human H460 cells assessed as live cells at 20 uM incubated for 24 hrs by Annexin V-FITC/propidium iodide staining based flow cytometric method (reference value: 91.2%). The series is classed as functional.
The subject of series [12] is NCI-H460. Briefly: Downregulation of TOP2B protein expression in human H460 cells at 40 uM incubated for 24 hrs by western blot analysis. The series is classed as functional, cell-based.
The subject of series [13] is NCI-H460. Briefly: Downregulation of TOP2B mRNA expression in human H460 cells incubated for 24 hrs by RT-qPCR analysis. The series is classed as functional, cell-based.
Series [14] deals with NCI-H460. Briefly: Downregulation of Cyclin D1 mRNA expression in human H460 cells at 40 uM after 24 hrs by RT-qPCR analysis. It counts as functional, cell-based.
For series [15], the system named is NCI-H460. Briefly: Induction of ROS generation in human H460 cells incubated for 24 hrs by DCFH-DA staining based fluorescence microscopy. It counts as functional, cell-based.
In series [16] the test system is NCI-H460. Briefly: Downregulation of TOP3B mRNA expression in human H460 cells incubated for 24 hrs by RT-qPCR analysis. It counts as functional, cell-based.
Series [17] concerns NCI-H460. Briefly: Downregulation of CDK4 mRNA expression in human H460 cells at 40 uM after 24 hrs by RT-qPCR analysis. It counts as functional, cell-based.
For series [18], the system named is A549. Briefly: Induction of apoptosis in human A549 cells assessed as necrotic cell at 40 uM incubated for 24 hrs by Annexin V-FITC/propidium iodide staining based flow cytometric method (reference value: 2.4%). It counts as functional.
Series [19] concerns NCI-H460. Briefly: Induction of apoptosis in human H460 cells assessed as live cells at 40 uM incubated for 24 hrs by Annexin V-FITC/propidium iodide staining based flow cytometric method (reference value: 91.2%). The series is classed as functional.
In series [20] the test system is A549. Briefly: Induction of apoptosis in human A549 cells assessed as live cells at 40 uM incubated for 24 hrs by Annexin V-FITC/propidium iodide staining based flow cytometric method (reference value: 95.6%). It counts as functional.
The test system of series [21] is NCI-H460. Briefly: Antiproliferative activity against human H460 cells assessed as cell viability at 40 uM incubated for 24 hrs by CCK-8 assay. The series is classed as functional. The settings on record: NCI-H460, 24 h, read-out: Activity.
Series [22] relates to NCI-H460. Briefly: Downregulation of CDK6 mRNA expression in human H460 cells at 40 uM after 24 hrs by RT-qPCR analysis. It counts as functional, cell-based.
Series [23] has as its system NCI-H460. Briefly: Downregulation of c-Myc protein expression level in human H460 cells at 40 uM incubated for 24 hrs by western blot analysis. It counts as functional, cell-based.
Series [24] concerns A549. Briefly: Induction of apoptosis in human A549 cells assessed as late apoptotic cells at 40 uM incubated for 24 hrs by Annexin V-FITC/propidium iodide staining based flow cytometric method (reference value: 1.7%). It counts as functional.
Series [25] deals with NCI-H460. Briefly: Induction of apoptosis in human H460 cells assessed as late apoptotic cells at 20 uM incubated for 24 hrs by Annexin V-FITC/propidium iodide staining based flow cytometric method (reference value: 4.3%). The series is classed as functional.
The test system of series [26] is A549. Briefly: Induction of ROS generation in human A549 cells incubated for 24 hrs by DCFH-DA staining based fluorescence microscopy. It counts as functional, cell-based.
Series [27] concerns A549. Briefly: Induction of apoptosis in human A549 cells assessed as necrotic cell at 20 uM incubated for 24 hrs by Annexin V-FITC/propidium iodide staining based flow cytometric method (reference value: 2.4%). It counts as functional.
Series [28] deals with NCI-H460. Briefly: Downregulation of c-Myc mRNA expression level in human H460 cells incubated for 24 hrs by RT-qPCR analysis. It counts as functional, cell-based.
For series [29], the system named is NCI-H460. Briefly: Induction of apoptosis in human H460 cells assessed as early apoptotic cells at 40 uM incubated for 24 hrs by Annexin V-FITC/propidium iodide staining based flow cytometric method (reference value: 2.4%). It counts as functional.
Series [30] has as its system A549. Briefly: Induction of apoptosis in human A549 cells assessed as early apoptotic cells at 20 uM incubated for 24 hrs by Annexin V-FITC/propidium iodide staining based flow cytometric method (reference value: 0.3%). It counts as functional.
The nature of series [31]: Cytotoxicity against mouse MFF cells assessed as inhibition of cell viability after 24 hrs. The series is classed as cell-based.
In series [32] the test system is A549. Briefly: Induction of apoptosis in human A549 cells assessed as live cells at 20 uM incubated for 24 hrs by Annexin V-FITC/propidium iodide staining based flow cytometric method (reference value: 95.6%). The series is classed as functional.
Series [33] concerns NCI-H460. Briefly: Induction of apoptosis in human H460 cells assessed as late apoptotic cells at 40 uM incubated for 24 hrs by Annexin V-FITC/propidium iodide staining based flow cytometric method (reference value: 4.3%). The series is classed as functional.
The subject of series [34] is NCI-H460. Briefly: Cell cycle arrest in human H460 cells assessed as accumulation of cells at G1 phase at 40 uM incubated for 24 hrs by PI staining based flow cytometric analysis. It counts as functional.
Series [35] relates to A549. Briefly: Induction of apoptosis in human A549 cells assessed as late apoptotic cells at 20 uM incubated for 24 hrs by Annexin V-FITC/propidium iodide staining based flow cytometric method (reference value: 1.7%). It counts as functional.
In series [36] the test system is NCI-H460. Briefly: Induction of apoptosis in human H460 cells assessed as necrotic cell at 40 uM incubated for 24 hrs by Annexin V-FITC/propidium iodide staining based flow cytometric method (reference value: 2.1%). The series is classed as functional.
Series [37] relates to NCI-H460. Briefly: Induction of apoptosis in human H460 cells assessed as necrotic cell at 20 uM incubated for 24 hrs by Annexin V-FITC/propidium iodide staining based flow cytometric method (reference value: 2.1%). The series is classed as functional.

The source made the active and inactive calls. The rule behind the calls is not given here.

Regarding `C=CCc1ccc(O)c(-c2cc(CC=C)ccc2O)c1` [MAGNOLOL], the result in series [1] and in series [6] was inactive. Besides, the IC50 in series [2] and in [4] was above 80 µM each time. The inhibition entry in [3] and in series [5] was “inactive” throughout.

Turning to `C=CCc1ccc(O)c(-c2cc(CC=C)ccc2OCCSCCCCN2C(=O)c3ccccc3C2=O)c1`, the outcome in [1] and in [6] was inactive.

`C=CCc1ccc(O)c(-c2cc(CC=C)ccc2OCCS(=O)(=O)CCCCN2C(=O)c3ccccc3C2=O)c1`: the result in series [1] and in [6] was inactive.

Turning to `C=CCc1ccc(O)c(-c2cc(CC=C)ccc2OCC[S+]([O-])CCCCN2C(=O)c3ccccc3C2=O)c1` (configuration not stated), the Activity in [7] is 6.8%; in series [8], 0.8%; in series [11], 66.7%; in series [15], “Dose-dependent effect”; in series [18], 8%; in [19], 46.6%. The Activity is 56.7% in series [20]; 34.5% in series [24]; 18.6% in [25]; “Dose-dependent effect” in series [26]; 3% in [27]; 5.7% in series [29]. Moreover, the Activity in [30] is 1.9%; in [31] it was “Non-Toxic”; in [32], 83.2%; in series [33] it was 38.1%; in [35] it was 11.9%; in [36], 9.6%. Further, in [37], the Activity amounted to 7.9%. The viability at 40 µM in [9] was found to be 51%; in series [21], 48.4%. Besides, the inhibition entry in series [10], in [12], in series [13], in series [14], in series [16] and in [17] was “Active” throughout. Moreover, the inhibition result in [22], in [23], in series [28], in series [3] and in series [5] was “Active” each time. Also, the inhibition result in series [2] and in [4] was “Dose-dependent effect” each time. The IC50 in [2] is 38 µM; in [4] it was 41.6 µM. Also, the result in [34] was Active.

The values are drawn from ChEMBL document CHEMBL4627276, “CT2-3, a novel magnolol analogue suppresses NSCLC cells through triggering cell cycle arrest and apoptosis” (Bioorg Med Chem, 2020).
